Eleven compounds from US10611740B2, “Aryl dihydro-2H-benzo[b][1,4]oxazine sulfonamide and related compounds for use as agonists of RORγ and the treatment of disease” (Lycera Corporation, priority 2015, dated 2020) can be followed below.

In general, EC50 refers to the concentration giving half of the maximal effect. Read a low EC50 as an effect from little substance.

In one test the target is T1, RORγ-LBD (Homo sapiens, UniProt P51449).
T1 construct: made in house; host or cells: SF9 cells (baculovirus)
T1 sequence (P51449 269-508 limits assumed): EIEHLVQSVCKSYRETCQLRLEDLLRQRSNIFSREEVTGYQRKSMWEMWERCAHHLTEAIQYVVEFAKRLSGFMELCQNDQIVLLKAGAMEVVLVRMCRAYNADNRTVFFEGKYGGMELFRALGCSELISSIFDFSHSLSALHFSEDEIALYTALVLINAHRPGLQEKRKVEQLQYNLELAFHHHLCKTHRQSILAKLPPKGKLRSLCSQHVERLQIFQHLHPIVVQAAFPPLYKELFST
The test can be described thus: RORγ-Ligand Binding Domain (LBD) TR-FRET Assay.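 As to TR-FRET Assay Max Response: 665/615 nm ratio relative to signal without ursolic acid or compound set at 100.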 In kind it is biochemical. In a few lines: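 This TR-FRET coactivator assay pairs baculovirus-expressed His-RORγ-LBD (~3 nM final) with biotin-SRC1 LXXLL peptide at 200 nM final in pH 7.0 Tris/KCl/EDTA/DTT/BSA buffer.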
(Time-resolved FRET reads energy transfer from a long-lived donor to a nearby acceptor.)

A further test has as its target T2, Gal4-RORγ-LBD (Homo sapiens, UniProt P51449).
T2 construct: expressed in transfected cells; host or cells: HEK-293 cells (pcDNA3.1neo plasmid)
T2 sequence (P51449 269-508 limits assumed): T1 sequence (P51449 269-508 limits assumed)
The test can be described thus: Gal4-RORγ Luciferase Reporter Assay in HEK-293T Cells. It is filed as cell-based. The following applies: HEK-293 cells. The gist of the method:
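Luminescence read-out (One-Glo, 10 min RT) after overnight compound exposure at 37 °C in HEK-293 cells carrying Gal4-RORγ-LBD plus a Gal4-luciferase reporter, in the presence of 2 μM ursolic acid. Max Response is the upper plateau from a 4-parameter logistic fit, normalized to untreated signal = 100.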

Setting [1] is: luciferase reporter, with 2 μM ursolic acid.

Regarding `O=C(O)CC[C@H]1CN(S(=O)(=O)c2cccc(C(F)(F)F)c2)c2cc(-c3cccc4ccnn34)ccc2O1` [Compound 4V, (S)-3-(6-(pyrazolo[1,5-a]-pyridin-7-yl)-4-((3-(trifluoro-methyl)-phenyl)sulfonyl)-3,4-dihydro-2H-benzo[b][1,4]-oxazin-2-yl)propanoic acid], at RORγ-LBD, the 50% effective concentration (EC50) was < 500 nM and the “TR-FRET Assay Max Response” value is given as “**** (The symbol “****” indicates a value greater than 200)”. In addition, on Gal4-RORγ-LBD (setting [1]), the EC50 was in the range of 500 to 5000 nM and the “Gal4-RORγ Assay Max Response” value is “** (The symbol “**” indicates a value in the range of greater than 90 to 150)”.
For `Cc1ccccc1-c1ccc2c(c1)N(S(=O)(=O)c1cccc(C(F)(F)F)c1)C[C@H](CCC(=O)O)O2` [Compound 2P, (S)-3-(6-(o-tolyl)-4-((3-(trifluoromethyl)phenyl)-sulfonyl)-3,4-dihydro-2H-benzo[b][1,4]oxazin-2-yl)propanoic acid], on RORγ-LBD, the EC50 is < 500 nM and the “TR-FRET Assay Max Response” value is “*** (The symbol “***” indicates a value in the range of greater than 150 to 200)”. On Gal4-RORγ-LBD (setting [1]), the EC50 is < 500 nM and the “Gal4-RORγ Assay Max Response” value is “*** (The symbol “***” indicates a value in the range of greater than 150 to 200)”.
With `COCCC(=O)NC[C@H]1CN(S(=O)(=O)c2cccc(C(F)(F)F)c2)c2cc(-c3cccc(F)c3Cl)ccc2O1` [Compound 30CH, (S)-N-((6-(2-chloro-3-fluoro-phenyl)-4-((3-(trifluoromethyl)-phenyl)sulfonyl)-3,4-dihydro-2H-benzo[b][1,4]oxazin-2-yl)methyl)-3-methoxy-propanamide], on RORγ-LBD, the EC50 is < 500 nM and the “TR-FRET Assay Max Response” value is “*** (The symbol “***” indicates a value in the range of greater than 150 to 200)”. Also, at Gal4-RORγ-LBD (2 μM ursolic acid), the EC50 lay in the range of 500 to 5000 nM and the “Gal4-RORγ Assay Max Response” value was “* (The symbol “*” indicates a value in the range of 25 to 90)”.
As for `O=C(NC[C@H]1CN(S(=O)(=O)c2cccc(C(F)(F)F)c2)c2cc(-c3cc(F)ccc3F)ccc2O1)[C@@H]1C[C@@H]1F` [Compound 30AM, (1S,2S)-N-(((S)-6-(2,5-difluoro-phenyl)-4-((3-(trifluoromethyl)-phenyl)sulfonyl)-3,4-dihydro-2H-benzo[b][1,4]oxazin-2-yl)methyl)-2-fluorocyclo-propane-1-carboxamide], on RORγ-LBD, the EC50 was < 500 nM and the “TR-FRET Assay Max Response” value is given as “**** (The symbol “****” indicates a value greater than 200)”. Further, on Gal4-RORγ-LBD (setting [1]), the EC50 is < 500 nM and the “Gal4-RORγ Assay Max Response” value is listed as “** (The symbol “**” indicates a value in the range of greater than 90 to 150)”.
As to `CC(F)C(=O)NC[C@H]1CN(S(=O)(=O)c2cccc(C(F)(F)F)c2)c2cc(-c3cccc(F)c3Cl)ccc2O1` (stereo partly drawn) [Compound 30CK, N-(((S)-6-(2-chloro-3-fluoro-phenyl)-4-((3-(trifluoromethyl)-phenyl)sulfonyl)-3,4-dihydro-2H-benzo[b][1,4]oxazin-2-yl)methyl)-2-fluoropropanamide], on RORγ-LBD, the EC50 is < 500 nM and the “TR-FRET Assay Max Response” value is given as “** (The symbol “**” indicates a value in the range of greater than 90 to 150)”. Besides, on Gal4-RORγ-LBD (2 μM ursolic acid), the EC50 was 500 to 5000 nM and the “Gal4-RORγ Assay Max Response” value is “* (The symbol “*” indicates a value in the range of 25 to 90)”.
In the case of `O=C(O)CC[C@H]1CN(S(=O)(=O)c2cccc(C(F)(F)F)c2)c2cc(-c3cccc(OC(F)(F)F)c3)ccc2O1` [Compound 2AP, (S)-3-(6-(3-(trifluoromethoxy)-phenyl)-4-((3-(trifluoromethyl)-phenyl)sulfonyl)-3,4-dihydro-2H-benzo[b][1,4]oxazin-2-yl)propanoic acid], at RORγ-LBD, the EC50 was < 500 nM and the “TR-FRET Assay Max Response” value is listed as “**** (The symbol “****” indicates a value greater than 200)”. Also, on Gal4-RORγ-LBD (setting [1]), the EC50 is < 500 nM and the “Gal4-RORγ Assay Max Response” value is on record as “** (The symbol “**” indicates a value in the range of greater than 90 to 150)”.
On to `COc1cc(S(=O)(=O)N2C[C@H](CCc3n[nH]c(=O)o3)Oc3ccc(-c4cccc(C(F)(F)F)n4)cc32)ccc1F` [Compound 28K, (S)-5-(2-(4-((4-fluoro-3-methoxyphenyl)sulfonyl)-6-(6-(trifluoromethyl)pyridin-2-yl)-3,4-dihydro-2H-benzo[b][1,4]oxazin-2-yl)ethyl)-1,3,4-oxadiazol-2(3H)-one], for which, at RORγ-LBD, the EC50 was < 500 nM and the “TR-FRET Assay Max Response” value was “**** (The symbol “****” indicates a value greater than 200)”. Moreover, on Gal4-RORγ-LBD (setting [1]), the EC50 is < 500 nM and the “Gal4-RORγ Assay Max Response” value is recorded as “** (The symbol “**” indicates a value in the range of greater than 90 to 150)”.
For the compound `O=C(O)CC[C@H]1CN(S(=O)(=O)c2cccc(C(F)(F)F)c2)c2cc(-c3cc(F)cc(Cl)c3)ccc2O1` [Compound 2I, (S)-3-(6-(3-chloro-5-fluorophenyl)-4-((3-(trifluoro-methyl)phenyl)sulfonyl)-3,4-dihydro-2H-benzo[b][1,4]-oxazin-2-yl)propanoic acid], at RORγ-LBD, the EC50 was < 500 nM and the “TR-FRET Assay Max Response” value is “*** (The symbol “***” indicates a value in the range of greater than 150 to 200)”. Moreover, on Gal4-RORγ-LBD (setting [1]), the EC50 is < 500 nM and the “Gal4-RORγ Assay Max Response” value is recorded as “*** (The symbol “***” indicates a value in the range of greater than 150 to 200)”.
On to `Cc1cccc(C)c1-c1ccc2c(c1)N(S(=O)(=O)c1cccc(C(F)(F)F)c1)C[C@H](CC(C)(C)C(=O)O)O2` [Compound 32BA, (S)-3-(6-(2,6-dimethylphenyl)-4-((3-(trifluoromethyl)phenyl)-sulfonyl)-3,4-dihydro-2H-benzo[b][1,4]oxazin-2-yl)-2,2-dimethylpropanoic acid], for which, on RORγ-LBD, the EC50 is < 500 nM and the “TR-FRET Assay Max Response” value is listed as “*** (The symbol “***” indicates a value in the range of greater than 150 to 200)”. Further, on Gal4-RORγ-LBD (2 μM ursolic acid), the EC50 lay in the range of 500 to 5000 nM and the “Gal4-RORγ Assay Max Response” value is on record as “** (The symbol “**” indicates a value in the range of greater than 90 to 150)”.
The like results for `O=C(O)CC[C@H]1CN(S(=O)(=O)c2cccc(C(F)(F)F)c2)c2cc(-c3cccc(Cl)c3F)cc(F)c2O1` [Compound 22I, (S)-3-(6-(3-chloro-2-fluoro-phenyl)-8-fluoro-4-((3-(trifluoromethyl)phenyl)sulfonyl)-3,4-dihydro-2H-benzo[b][1,4]-oxazin-2-yl)propanoic acid] were, in that order, < 500 nM, “*** (The symbol “***” indicates a value in the range of greater than 150 to 200)”, < 500 nM and “** (The symbol “**” indicates a value in the range of greater than 90 to 150)”.
As for `O=C(O)[C@H]1C[C@H](C[C@H]2CN(S(=O)(=O)c3cccc(C(F)(F)F)c3)c3cc(-c4cc(F)ccc4F)ccc3O2)C1` [Compound 60A, (1S,3r)-3-(((S)-6-(2,5-difluoro-phenyl)-4-((3-(trifluoromethyl)-phenyl)sulfonyl)-3,4-dihydro-2H-benzo[b][1,4]oxazin-2-yl)methyl)cyclobutane-1-carboxylic acid], at RORγ-LBD, the EC50 is < 500 nM and the “TR-FRET Assay Max Response” value was “*** (The symbol “***” indicates a value in the range of greater than 150 to 200)”. At Gal4-RORγ-LBD (2 μM ursolic acid), the EC50 is < 500 nM and the “Gal4-RORγ Assay Max Response” value is recorded as “** (The symbol “**” indicates a value in the range of greater than 90 to 150)”.
